From publication PMC6270595, “Synthesis and Cytotoxicity of Novel 10-Substituted Dihydroartemisinin Derivatives Containing N-Arylphenyl-ethenesulfonamide Groups” (Molecules, 2013)
Like-named read-outs stand apart in the source and are kept apart here.

Columns and labels:
[1] = tested on: WI-38 (human fetal lung fibroblasts); assay: MTT cytotoxicity assay, normal cell line WI-38; format: cell-based; conditions: normal WI-38 cells, 50% cell growth inhibition after 72 h of drug exposure, read-out: IC50(μM) WI38
Procedure: (§1) The cytotoxic activities of target compounds were evaluated against HT-29 (human colon cancer), MDA-MB-231 (human breast cancer), U87MG (human glioblastoma), H460 (human lung cancer), A549 (non-small-cell lung adenocarcinoma), HL-60 (human leukemic) cancer cell lines and one normal cell line WI-38 (human fetal lung fibroblasts) together with references DHA and cisplatin by a MTT assay.
(§2) The cytotoxic activities of compounds 3a–h and 6a–j were evaluated with the HT-29, MDA-MB-231, U87MG, H460, A549, HL-60 cancer cell lines and one normal cell line, WI-38, by the standard MTT assay in vitro [20], with DHA as the positive control. The cell lines were cultured in minimum essential medium (MEM) supplement with 10% fetal bovine serum (FBS). Approximately 4 × 10^3 cells, suspended in MEM medium, were plated on to each well of a 96-well plate and incubated in 5% CO2 at 37 °C for 24 h. The test compounds at indicated final concentrations were added to the culture medium and the cell cultures were continued for 72 h. Fresh MTT was added to each well at a terminal concentration of 5 μg/mL and incubated with cells at 37 °C for 4 h. The formazan crystals were dissolved in 100 μL DMSO each well, and the absorbency at 492 nm (for absorbance of MTT formazan) and 630 nm (for the reference wavelength) was measured with the ELISA reader. All of the compounds were tested twice in each of the cell lines. The results expressed as IC50 (inhibitory concentration 50%) were the averages of two determinations and calculated using the Bacus Laboratories Incorporated Slide Scanner (Bliss) software.

[2] = tested on: MDA-MB-231 (human breast cancer); assay: MTT cytotoxicity assay, MDA-MB-231; format: cell-based; conditions: MDA-MB-231 cells, 50% cell growth inhibition after 72 h of drug exposure
Procedure: as §1, §2

[3] = tested on: A549 (non-small-cell lung adenocarcinoma); assay: MTT cytotoxicity assay, A549; format: cell-based, human; conditions: A549 cells, 50% cell growth inhibition after 72 h of drug exposure
Procedure: as §1, §2

[4] = tested on: HL-60 (human leukemic); assay: MTT cytotoxicity assay, HL-60; format: cell-based; conditions: for IC50: HL-60 cells, 50% cell growth inhibition after 72 h of drug exposure, MTT
Procedure: as §1, §2

[5] = tested on: U87MG (human glioblastoma); assay: MTT cytotoxicity assay, U87MG; format: cell-based; conditions: for IC50: U87MG cells, 50% cell growth inhibition after 72 h of drug exposure, MTT
Procedure: as §1, §2

[6] = tested on: HT-29 (human colon cancer); assay: MTT cytotoxicity assay, HT-29; format: cell-based; conditions: HT-29 cells, 50% cell growth inhibition after 72 h of drug exposure, read-out: IC50(μM) HT29
Procedure: as §1, §2

[7] = tested on: H460 (human lung cancer); assay: MTT cytotoxicity assay, H460; format: cell-based; conditions: for IC50: H460 cells, 50% cell growth inhibition after 72 h of drug exposure, MTT
Procedure: as §1, §2

SMILES	IC50 [1]	IC50 [2]	IC50 [3]	IC50 [4]	IC50 [5]	IC50 [6]	IC50 [7]	melting point	IC50 ([1]; Homo sapiens)	IC50 ([2]; Homo sapiens)	IC50 ([3]; Homo sapiens)	IC50 ([4]; Homo sapiens)	IC50 ([5]; Homo sapiens, U-87 MG)	IC50 ([6]; Homo sapiens)	IC50 ([7]; Homo sapiens, NCI-H460)	activity fold higher than that of benzamide analog 6c ([4]; HL-60, versus 6c)	selectivity index (IC50 normal cell/IC50 cancer cell) ([4]; WI-38 normal cells versus HL-60)	activity fold higher than that of benzamide analog 6c ([5]; U87MG, versus 6c)	activity fold higher than that of benzamide analog 6c ([7]; H460, versus 6c)
N.N.[Cl][Pt][Cl] [Cisplatin, cisplatin, reference compound]	51.2 µM	6.82 µM	4.31 µM	9.28 µM	8.21 µM	10.3 µM	7.55 µM												
C[C@@H]1CC[C@H]2[C@@H](C)C(OCCOc3ccc(/C=C/S(=O)(=O)Nc4ccccc4)cc3)O[C@@H]3O[C@@]4(C)CC[C@@H]1[C@]32OO4 (stereo partly drawn) [Compound 3a, (E)-2-(4-(2-(10β-Dihydroartemisinoxy)ethoxy)phenyl)-N-phenylethenesulfonamide]								136 to 138 °C	16.8 µM	2 µM	2.16 µM	1.25 µM	3.97 µM	0.68 µM	5.38 µM				
C[C@@H]1CC[C@H]2[C@@H](C)C(OCCOc3ccc(/C=C/S(=O)(=O)Nc4cccc(Cl)c4)cc3)O[C@@H]3O[C@@]4(C)CC[C@@H]1[C@]32OO4 (stereo partly drawn) [Compound 3b, (E)-2-(4-(2-(10β-Dihydroartemisinoxy)ethoxy)phenyl)-N-(3-chlorophenyl)ethenesulfonamide]								137 to 138 °C	23.9 µM	1.61 µM	4.48 µM	0.75 µM	3.51 µM	0.78 µM	7.32 µM				
C[C@@H]1CC[C@H]2[C@@H](C)C(OCCOc3ccc(/C=C/S(=O)(=O)Nc4ccc(OC(F)(F)F)cc4)cc3)O[C@@H]3O[C@@]4(C)CC[C@@H]1[C@]32OO4 (stereo partly drawn) [Compound 3c, (E)-2-(4-(2-(10β-Dihydroartemisinoxy)ethoxy)phenyl)-N-(4-trifluoromethoxyphenyl)ethenesulfonamide]									37.5 µM	0.39 µM	2.11 µM	0.05 µM	1.59 µM	0.2 µM	0.97 µM	2 fold	750	2 fold	3 fold
Cc1ccc(F)c(NS(=O)(=O)/C=C/c2ccc(OCCOC3O[C@@H]4O[C@@]5(C)CC[C@H]6[C@H](C)CC[C@@H]([C@H]3C)[C@@]46OO5)cc2)c1 (stereo partly drawn) [Compound 3d, (E)-2-(4-(2-(10β-Dihydroartemisinoxy)ethoxy)phenyl)-N-(2-fluoro-5-methylphenyl)ethenesulfonamide]								138 to 140 °C	20.5 µM	1.27 µM	3.64 µM	0.84 µM	5.71 µM	1.78 µM	4.29 µM				
Cc1ccccc1NS(=O)(=O)/C=C/c1ccc(OCCOC2O[C@@H]3O[C@@]4(C)CC[C@H]5[C@H](C)CC[C@@H]([C@H]2C)[C@@]35OO4)cc1 (stereo partly drawn) [Compound 3e, (E)-2-(4-(2-(10β-Dihydroartemisinoxy)ethoxy)phenyl)-N-(2-methylphenyl)ethenesulfonamide]								136 to 138 °C	16.4 µM	1.64 µM	7.32 µM	2.37 µM	2.73 µM	0.86 µM	1.58 µM				
C[C@@H]1CC[C@H]2[C@@H](C)C(OCCOc3ccc(/C=C/S(=O)(=O)Nc4ccc(Cl)cc4)cc3)O[C@@H]3O[C@@]4(C)CC[C@@H]1[C@]32OO4 (stereo partly drawn) [Compound 3f, (E)-2-(4-(2-(10β-Dihydroartemisinoxy)ethoxy)phenyl)-N-(4-chlorophenyl)ethenesulfonamide]								138 to 141 °C	19.9 µM	1.04 µM	3.52 µM	0.08 µM	0.79 µM	0.42 µM	1.41 µM				
C[C@@H]1CC[C@H]2[C@@H](C)C(OCCOc3ccc(/C=C/S(=O)(=O)Nc4ccccc4Cl)cc3)O[C@@H]3O[C@@]4(C)CC[C@@H]1[C@]32OO4 (stereo partly drawn) [Compound 3g, (E)-2-(4-(2-(10β-Dihydroartemisinoxy)ethoxy)phenyl)-N-(2-chlorophenyl)ethenesulfonamide]								141 to 143 °C	16.3 µM	0.93 µM	3.05 µM	0.17 µM	1.78 µM	0.55 µM	2.53 µM				
C[C@@H]1CC[C@H]2[C@@H](C)C(OCCOc3ccc(/C=C/S(=O)(=O)Nc4c(Cl)cccc4Cl)cc3)O[C@@H]3O[C@@]4(C)CC[C@@H]1[C@]32OO4 (stereo partly drawn) [Compound 3h, (E)-2-(4-(2-(10β-Dihydroartemisinoxy)ethoxy)phenyl)-N-(2,6-dichlorophenyl)ethenesulfonamide]								144 to 146 °C	20.7 µM	1.07 µM	4.33 µM	0.14 µM	2.51 µM	0.49 µM	1.28 µM				
C[C@@H]1CC[C@H]2[C@@H](C)C(OCCNC(=O)c3ccc(COc4ccc(/C=C/S(=O)(=O)Nc5ccccc5)cc4)cc3)O[C@@H]3O[C@@]4(C)CC[C@@H]1[C@]32OO4 (stereo partly drawn) [Compound 6a, (E)-N-(2-(10β-Dihydroartemisinoxy)ethyl)-4((4-(2-(N-phenylsulfamoyl)vinyl)phenoxy)methyl)benzamide]								142 to 145 °C	20 µM	2.26 µM	3.21 µM	2.41 µM	6.47 µM	0.98 µM	5.28 µM				
C[C@@H]1CC[C@H]2[C@@H](C)C(OCCNC(=O)c3ccc(COc4ccc(/C=C/S(=O)(=O)Nc5cccc(Cl)c5)cc4)cc3)O[C@@H]3O[C@@]4(C)CC[C@@H]1[C@]32OO4 (stereo partly drawn) [Compound 6b, (E)-N-(2-(10β-Dihydroartemisinoxy)ethyl)-4((4-(2-(N-(3-chlorophenyl)sulfamoyl)vinyl)phenoxy)methyl)benzamide]								146 to 149 °C	35.8 µM	2.23 µM	2.86 µM	1.81 µM	4.52 µM	1.11 µM	2.79 µM				
C[C@@H]1CC[C@H]2[C@@H](C)C(OCCNC(=O)c3ccc(COc4ccc(/C=C/S(=O)(=O)Nc5ccc(OC(F)(F)F)cc5)cc4)cc3)O[C@@H]3O[C@@]4(C)CC[C@@H]1[C@]32OO4 (stereo partly drawn) [Compound 6c, (E)-N-(2-(10β-Dihydroartemisinoxy)ethyl)-4((4-(2-(N-(4-trifluoromethoxyphenyl)sulfamoyl)vinyl)phenoxy)methyl)benzamide]									28.2 µM	0.49 µM	1.57 µM	0.09 µM	3.71 µM	0.29 µM	2.7 µM				
Cc1ccc(F)c(NS(=O)(=O)/C=C/c2ccc(OCc3ccc(C(=O)NCCOC4O[C@@H]5O[C@@]6(C)CC[C@H]7[C@H](C)CC[C@@H]([C@H]4C)[C@@]57OO6)cc3)cc2)c1 (stereo partly drawn) [Compound 6d, (E)-N-(2-(10β-Dihydroartemisinoxy)ethyl)-4((4-(2-(N-(2-fluoro-5-methylphenyl)sulfamoyl)vinyl)phenoxy)methyl)benzamide]								135 to 137 °C	19.3 µM	1.33 µM	9.72 µM	1.3 µM	17.2 µM	1.82 µM	10.9 µM				
C[C@H]1[C@@H](O)O[C@@H]2O[C@@]3(C)CC[C@H]4[C@H](C)CC[C@@H]1[C@@]24OO3 [DHA, dihydroartemisinin]									> 100 µM	9.8 µM	10.1 µM	5.29 µM	15.8 µM	5.6 µM	12.4 µM				
